Assay [1] deals with Recombinant human BRD4(1-477) (Homo sapiens (Human), UniProt O60885). The experiment in a line: BRD4 TR-FRET biochemical IC50 assay. To be noted: TR-FRET, tetra-acetylated histone peptide; read-out: BRD4 IC50. Type of assay: binding.
Assay [2] concerns MV4-11. Kind of assay: MV4-11 (3 Days) EC50. Type of assay: cell-based.

Like-named read-outs stand apart in the source and are kept apart here.

Take `Cc1noc(C)c1-c1ccc2c(c1)C(c1ccsc1)(N1CCC[C@@H](N)C1)C(=O)N2` (single isomer, unassigned) [Compound 4.6a]: the IC50 in assay [1] is 30 nM. The compound also had an EC50 in assay [2] of 102 nM.
For `Cc1noc(C)c1-c1ccc2c(c1)C(c1ccccc1)(N1CC(O)C1)C(=O)N2` (stereo not drawn) [Compound 2.58, 5-(3,5-Dimethylisoxazol-4-yl)-3-(3-hydroxyazetidin-1-yl)-3-phenylindolin-2-one], in assay [1], the IC50 worked out at 78 nM. In assay [2] (Homo sapiens, MV4-11, 72 h), this compound registered an EC50 of 258 nM.
Regarding `Cc1ccc(C2(O)C(=O)Nc3ccc(-c4c(C)noc4C)cc32)cc1` (stereo not drawn) [Compound 1.5, 5-(3,5-dimethylisoxazol-4-yl)-3-hydroxy-3-p-tolylindolin-2-one], the IC50 in assay [1] amounted to 180 nM. The compound further came in with an EC50 in assay [2] (Homo sapiens, 72 h) of 285 nM.
On to `Cc1noc(C)c1-c1ccc2c(c1)C(CCO)(c1ccccc1)C(=O)N2` (stereo not drawn) [Compound 3.5, 5-(3,5-Dimethylisoxazol-4-yl)-3-(2-hydroxyethyl)-3-phenylindolin-2-one], for which the IC50 in assay [1] came out at 120 nM. Further, the EC50 in assay [2] (Homo sapiens, MV4-11, 72 h) was found to be 140 nM.
Taken in the same sequence, the figures for `Cc1noc(C)c1-c1ccc2c(c1)C(NC(C)C)(C1CCCCC1)C(=O)N2` (stereo not drawn) [Compound 2.27, 3-cyclohexyl-5-(3,5-dimethylisoxazol-4-yl)-3-(isopropylamino)indolin-2-one] were 85 nM and 833 nM.
Consider `Cc1noc(C)c1-c1ccc2c(c1)C(N)(c1ccccc1)C(=O)N2` (single isomer, unassigned) [Compound 2.2b, 3-amino-5-(3,5-dimethylisoxazol-4-yl)-3-phenylindolin-2-one], for which the IC50 in assay [1] worked out at 3600 nM. For the same compound, the EC50 in assay [2] is > 10000 nM.
For the compound `Cc1noc(C)c1-c1ccc2c(c1)C(O)(c1ccc(F)c(F)c1)C(=O)N2` (stereo not drawn) [Compound 1.8, 3-(3,4-difluorophenyl)-5-(3,5-dimethylisoxazol-4-yl)-3-hydroxyindolin-2-one], in assay [1], the IC50 came to 200 nM. This compound showed an EC50 in assay [2] (Homo sapiens, 72 h) of 425 nM.
On to `COC(=O)[C@@H]1C[C@@H](O)CN1C1(c2ccccc2)C(=O)Nc2ccc(-c3c(C)noc3C)cc21` (single isomer, unassigned) [Compound 2.50a], for which the IC50 in assay [1] was found to be 460 nM. In addition, the EC50 in assay [2] (Homo sapiens, MV4-11, 72 h) was 681 nM.
As for `Cc1noc(C)c1-c1ccc2c(c1)C(NC[C@H](C)O)(c1ccccc1)C(=O)N2` (single isomer, unassigned) [Compound 2.14a], the IC50 in assay [1] was 78 nM. In assay [2] (Homo sapiens, MV4-11, 72 h), the EC50 was 115 nM.
Taken in the same sequence, the figures for `Cc1noc(C)c1-c1ccc2c(c1)C(OCCO)(c1ccccc1)C(=O)N2` (stereo not drawn) [Compound 1.32, 5-(3,5-Dimethylisoxazol-4-yl)-3-(2-hydroxyethoxy)-3-phenylindolin-2-one] were 79 nM and 82 nM.
With `Cc1noc(C)c1-c1ccc2c(c1)C(c1ccsc1)(N1CCC[C@H](N)C1)C(=O)N2` (single isomer, unassigned) [Compound 4.7b], in assay [1], the IC50 is 8 nM. Moreover, it took 34 nM to reach a half-maximal effect in assay [2] (Homo sapiens, MV4-11, 72 h) (EC50).
For `Cc1noc(C)c1-c1ccc2c(c1)C(O)(C1CCCC1)C(=O)N2` (stereo not drawn) [Compound 1.17, 3-cyclopentyl-5-(3,5-dimethylisoxazol-4-yl)-3-hydroxyindolin-2-one], the IC50 in assay [1] is 270 nM. This compound came in with an EC50 in assay [2] (Homo sapiens, 72 h) of 671 nM.
Taken in the same sequence, the figures for `Cc1noc(C)c1-c1ccc2c(c1)C(O)(C1CCCCC1)C(=O)N2` (stereo not drawn) [Compound 1.15, 3-cyclohexyl-5-(3,5-dimethylisoxazol-4-yl)-3-hydroxyindolin-2-one] were 77 nM and 183 nM.
As to `Cc1noc(C)c1-c1ccc2c(c1)C(O)(C1CC1)C(=O)N2` (stereo not drawn) [Compound 1.19, 3-cyclopropyl-5-(3,5-dimethylisoxazol-4-yl)-3-hydroxyindolin-2-one], the IC50 in assay [1] worked out at 850 nM. The same compound yielded an EC50 in assay [2] (Homo sapiens, 72 h) of 1960 nM.
With `Cc1noc(C)c1-c1ccc2c(c1)C(N[C@@H](CO)C(C)C)(C1CCCCC1)C(=O)N2` (single isomer, unassigned) [Compound 2.20b], the concentration for half-maximal inhibition (IC50) in assay [1] came out at 350 nM. Moreover, in assay [2] (Homo sapiens, MV4-11, 72 h), the midpoint of the response, the EC50, lay at 377 nM.
Taken in the same sequence, the figures for `Cc1noc(C)c1-c1ccc2c(c1)C(Cl)(c1ccccc1)C(=O)N2` (stereo not drawn) [Compound 1.31, 3-Chloro-5-(3,5-dimethylisoxazol-4-yl)-3-phenylindolin-2-one] were 58 nM and 152 nM.
Taken in the same sequence, the figures for `Cc1noc(C)c1-c1ccc2c(c1)C(c1ccccc1)(N1CCN(C)CC1)C(=O)N2` (stereo not drawn) [Compound 2.5, 5-(3,5-dimethylisoxazol-4-yl)-3-(4-methylpiperazin-1-yl)-3-phenylindolin-2-one] were 110 nM and 420 nM.
As to `Cc1noc(C)c1-c1ccc2c(c1)C(NCCN(C)C)(C1CCCCC1)C(=O)N2` (stereo not drawn) [Compound 2.28, 3-cyclohexyl-3-(2-(dimethylamino)ethylamino)-5-(3,5-dimethylisoxazol-4-yl)indolin-2-one], in assay [1], the IC50 amounted to 140 nM. In assay [2] (Homo sapiens, MV4-11, 72 h), the EC50 was found to be 539 nM.
Taken in the same sequence, the figures for `Cc1noc(C)c1-c1ccc2c(c1)C(CCCN1CCN(C)CC1)(c1ccccc1)C(=O)N2` (stereo not drawn) [Compound 3.7, 5-(3,5-Dimethylisoxazol-4-yl)-3-(3-(4-methylpiperazin-1-yl)propyl)-3-phenylindolin-2-one] were 53 nM and 116 nM.
Taken in the same sequence, the figures for `Cc1noc(C)c1-c1ccc2c(c1)C(CCCN1CCC(O)CC1)(c1ccccc1)C(=O)N2` (stereo not drawn) [Compound 3.9, 5-(3,5-Dimethylisoxazol-4-yl)-3-(3-(4-hydroxypiperidin-1-yl)propyl)-3-phenylindolin-2-one] were 120 nM and 377 nM.
Taken in the same sequence, the figures for `CCOC(=O)CC1(c2ccccc2)C(=O)Nc2ccc(-c3c(C)noc3C)cc21` (stereo not drawn) [Compound 3.3, Ethyl 2-(5-(3,5-dimethylisoxazol-4-yl)-2-oxo-3-phenylindolin-3-yl)acetate] were 440 nM and 787 nM.
Take `CC#CC1(O)C(=O)Nc2ccc(-c3c(C)noc3C)cc21` (stereo not drawn) [Compound 1.22, 5-(3,5-dimethylisoxazol-4-yl)-3-hydroxy-3-(prop-1-ynyl)indolin-2-one]: the half-inhibitory concentration (IC50) in assay [1] was found to be 220 nM. This compound gave an EC50 in assay [2] (Homo sapiens, MV4-11, 72 h) of 478 nM.
Taken in the same sequence, the figures for `Cc1noc(C)c1-c1ccc2c(c1)C(NC(=O)CN(C)C)(c1ccccc1)C(=O)N2` (stereo not drawn) [Compound 6.0, 2-(Dimethylamino)-N-(5-(3,5-dimethylisoxazol-4-yl)-2-oxo-3-phenylindolin-3-yl)acetamide] were 320 nM and 746 nM.
`Cc1noc(C)c1-c1ccc2c(c1)C(O)(c1cccc(Cl)c1)C(=O)N2` (stereo not drawn) [Compound 1.3, 3-(3-chlorophenyl)-5-(3,5-dimethylisoxazol-4-yl)-3-hydroxyindolin-2-one]: in assay [1], the half-maximal inhibitory concentration (IC50) turned out to be 380 nM. Besides, in assay [2] (Homo sapiens, 72 h), the midpoint of the response, the EC50, lay at 369 nM.
Regarding `Cc1noc(C)c1-c1ccc2c(c1)C(c1ccsc1)(N1CCC[C@H](N)C1)C(=O)N2` (single isomer, unassigned) [Compound 4.7a], in assay [1], the IC50 turned out to be 24 nM. This compound showed an EC50 in assay [2] (Homo sapiens, MV4-11, 72 h) of 35 nM.
Taken in the same sequence, the figures for `Cc1noc(C)c1-c1ccc2c(c1)C(C1CCCC1)(N1CCOCC1)C(=O)N2` (stereo not drawn) [Compound 2.34, 3-cyclopentyl-5-(3,5-dimethylisoxazol-4-yl)-3-morpholinoindolin-2-one] were 120 nM and 438 nM.
Taken in the same sequence, the figures for `Cc1noc(C)c1-c1ccc2c(c1)C(CCCN(C)C)(c1ccccc1)C(=O)N2` (stereo not drawn) [Compound 3.10, 3-(3-(Dimethylamino)propyl)-5-(3,5-dimethylisoxazol-4-yl)-3-phenylindolin-2-one] were 140 nM and 490 nM.

(Values after US9393232B2 (BeiGene, Ltd., priority 2013, dated 2016).)
